Laboratory results from ChEMBL document CHEMBL6087414, “Discovery of 4-(4-(3-(1-(2-(piperidin-1-yl)ethyl)-1H-benzo[d]imidazole-2-yl)isoxazol-5-yl)phenyl)morpholine as a novel c-Myc inhibitor against lung cancer in vitro and in vivo” (Eur J Med Chem, 2025).
The source made the active and inactive calls. No cut-off for these calls is given here.

Key:
A549 [1] = test: Cytotoxicity against human A549 cells assessed as inhibition of cell viability incubated for 48 hrs by CCK8 assay; type: functional, cell-based; settings: A549, 48 h
NCI-H1299 = test: Cytotoxicity against human NCI-H1299 cells assessed as inhibition of cell viability incubated for 48 hrs by CCK8 assay; type: functional, cell-based; settings: NCI-H1299, 48 h
A549 [2] = test: Induction of apoptosis in human A549 cells assessed as late apoptotic cells at 10 uM incubated for 48 hrs by Annexin V-FITC/PI staining based flow cytometry (reference value: 5.79 %); type: functional
[3] = target: Myc proto-oncogene protein (Homo sapiens) (UniProt P01106); test: Inhibition of c-Myc in human A549 cells by Western blot analysis; type: cell-based; settings: dose <= 10.0 µM
Sequence of Myc proto-oncogene protein (Homo sapiens) (P01106 whole entry): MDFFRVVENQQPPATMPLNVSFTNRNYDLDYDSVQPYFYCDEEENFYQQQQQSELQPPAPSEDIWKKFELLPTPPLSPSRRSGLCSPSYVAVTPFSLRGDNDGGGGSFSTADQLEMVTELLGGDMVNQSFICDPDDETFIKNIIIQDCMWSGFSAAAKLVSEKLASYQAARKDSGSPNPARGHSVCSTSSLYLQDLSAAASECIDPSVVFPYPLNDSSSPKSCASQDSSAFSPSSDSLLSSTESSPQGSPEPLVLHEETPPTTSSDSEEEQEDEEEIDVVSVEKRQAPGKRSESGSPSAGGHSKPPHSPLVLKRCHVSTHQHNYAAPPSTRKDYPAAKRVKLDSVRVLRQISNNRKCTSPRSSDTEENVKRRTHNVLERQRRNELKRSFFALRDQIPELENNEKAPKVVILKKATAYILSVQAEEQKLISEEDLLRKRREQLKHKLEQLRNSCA

A549 [4] = test: Induction of apoptosis in human A549 cells assessed as viable cells at 10 uM incubated for 48 hrs by Annexin V-FITC/PI staining based flow cytometry (reference value: 87.8 %); type: functional; settings: read-out: Activity
A549 [5] = test: Induction of apoptosis in human A549 cells assessed as viable cells at 5 uM incubated for 48 hrs by Annexin V-FITC/PI staining based flow cytometry (reference value: 87.8 %); type: functional; settings: read-out: Activity
A549 [6] = test: Induction of apoptosis in human A549 cells assessed as activation of caspase-9 cleavage at 2.5 to 10 uM incubated for 48 hrs by Western blot analysis; type: functional, cell-based; settings: dose 2.5-10 µM
A549 [7] = test: Induction of apoptosis in human A549 cells incubated for 48 hrs by Annexin V-FITC/PI staining based flow cytometry; type: functional, cell-based; settings: dose 5-15 µM
A549 [8] = test: Induction of apoptosis in human A549 cells assessed as increase in BAX level at 2.5 to 10 uM incubated for 48 hrs by Western blot analysis; type: functional, cell-based; settings: dose 2.5-10 µM
A549 [9] = test: Induction of apoptosis in human A549 cells at 15 uM incubated for 48 hrs by Annexin V-FITC/PI staining based flow cytometry relative to control; type: functional
[10] = target: Myc proto-oncogene protein (Homo sapiens) (UniProt P01106); test: Inhibition of c-Myc in human NCI-H1299 cells by Western blot analysis; type: cell-based; settings: dose <= 10.0 µM
A549 [11] = test: Effect on c-Myc mRNA expression in human A549 cells at 10 uM by Q-PCR analysis; type: functional, cell-based
A549 [12] = test: Induction of apoptosis in human A549 cells assessed as viable cells at 2.5 uM incubated for 48 hrs by Annexin V-FITC/PI staining based flow cytometry (reference value: 87.8 %); type: functional; settings: read-out: Activity
[13] = target: Myc proto-oncogene protein (Homo sapiens) (UniProt P01106); test: Inhibition of c-Myc in human A549 cells assessed as decrease in half life at 10 uM pretreated for 12 hrs followed by CHX treatment for 1 to 2 hrs by Western blot analysis; type: cell-based; settings: time 13-14 hrs
[14] = Cytotoxicity against human BEAS-2B cells assessed as cell viability upto 20 uM incubated for 48 hrs by CCK8 assay relative to control; type: toxicity, cell-based; settings: read-out: Activity
A549 [15] = test: Induction of apoptosis in human A549 cells assessed as early apoptotic cells at 10 uM incubated for 48 hrs by Annexin V-FITC/PI staining based flow cytometry (reference value: 5.02 %); type: functional
A549 [16] = test: Induction of apoptosis in human A549 cells assessed as activation of caspase-3 cleavage at 2.5 to 10 uM incubated for 48 hrs by Western blot analysis; type: functional, cell-based; settings: dose 2.5-10 µM
A549 [17] = test: Induction of apoptosis in human A549 cells assessed as early apoptotic cells at 5 uM incubated for 48 hrs by Annexin V-FITC/PI staining based flow cytometry (reference value: 5.02 %); type: functional
A549 [18] = test: Induction of apoptosis in human A549 cells assessed as decrease in Bcl-2 level at 2.5 to 10 uM incubated for 48 hrs by Western blot analysis; type: functional, cell-based; settings: dose 2.5-10 µM
A549 [19] = test: Induction of apoptosis in human A549 cells at 5 uM incubated for 48 hrs by Annexin V-FITC/PI staining based flow cytometry relative to control; type: functional
A549 [20] = test: Induction of apoptosis in human A549 cells assessed as necrotic cells at 2.5 uM incubated for 48 hrs by Annexin V-FITC/PI staining based flow cytometry (reference value: 1.41 %); type: functional
A549 [21] = test: Induction of apoptosis in human A549 cells assessed as increase in BAD level at 2.5 to 10 uM incubated for 48 hrs by Western blot analysis; type: functional, cell-based; settings: dose 2.5-10 µM
A549 [22] = test: Induction of apoptosis in human A549 cells assessed as late apoptotic cells at 2.5 uM incubated for 48 hrs by Annexin V-FITC/PI staining based flow cytometry (reference value: 5.79 %); type: functional
A549 [23] = test: Induction of apoptosis in human A549 cells assessed as early apoptotic cells at 2.5 uM incubated for 48 hrs by Annexin V-FITC/PI staining based flow cytometry (reference value: 5.02 %); type: functional
A549 [24] = test: Induction of apoptosis in human A549 cells assessed as late apoptotic cells at 5 uM incubated for 48 hrs by Annexin V-FITC/PI staining based flow cytometry (reference value: 5.79 %); type: functional
A549 [25] = test: Induction of apoptosis in human A549 cells assessed as necrotic cells at 5 uM incubated for 48 hrs by Annexin V-FITC/PI staining based flow cytometry (reference value: 1.41 %); type: functional
A549 [26] = test: Induction of apoptosis in human A549 cells assessed as necrotic cells at 10 uM incubated for 48 hrs by Annexin V-FITC/PI staining based flow cytometry (reference value: 1.41 %); type: functional
[27] = target: Myc proto-oncogene protein (Homo sapiens) (UniProt P01106); test: Inhibition of c-Myc in human A549 cells at 10 uM incubated for 24 hrs in presence of MG132 by Western blot analysis; type: cell-based

Molecule `c1ccc2c(c1)nc(-c1cc(-c3ccc(N4CCCC4)cc3)on1)n2CCN1CCCC1` has an IC50 (A549 [1]) of 20.8 µM and an IC50 (NCI-H1299) of 38 µM.
`CN(C)CCCn1c(-c2cc(-c3ccc(N4CCCCC4)cc3)on2)nc2ccccc21` gave an IC50 (A549 [1]) of 6.04 µM and an IC50 (NCI-H1299) of 15.4 µM.
Molecule `CN(C)c1ccc(-c2cc(-c3nc4ccccc4n3CCN3CCCCC3)no2)cc1` has an IC50 (A549 [1]) of 9.22 µM and an IC50 (NCI-H1299) of 13.1 µM.
For `CN(C)c1ccc(-c2cc(-c3nc4ccccc4n3CCN3CCOCC3)no2)cc1`, the IC50 (A549 [1]) was 12.7 µM and the IC50 (NCI-H1299) was 17.7 µM.
In the case of `c1ccc2c(c1)nc(-c1cc(-c3ccc(N4CCOCC4)cc3)on1)n2CCN1CCCC1`, the Activity (A549 [2]) is reported as 45.2%, the inhibition [3] is reported as “Dose-dependent-effect” and the viability at 10 µM (A549 [4]) is reported as 43.2%. The viability at 5 µM (A549 [5]) was 66.3%, the Activity (A549 [6]) was “Active” and the Activity (A549 [7]) was “Dose-dependent-effect”. The Activity (A549 [8]) was “Active”, the Activity (A549 [9]) was 53% and the inhibition [10] was “Dose-dependent-effect”. For the same molecule, the Activity (A549 [11]) was “inactive”, the viability at 2.5 µM (A549 [12]) was 72.1% and the IC50 (A549 [1]) was 6.32 µM. For the same molecule, the inhibition [13] was “Active”, the viability at 48 h, 20 µM [14] was greater than 90% and the Activity (A549 [15]) was 7.88%. For the same molecule, the Activity (A549 [16]) was “Active”, the Activity (A549 [17]) was 11.7% and the IC50 (NCI-H1299) was 11.4 µM. For the same molecule, the Activity (A549 [18]) was “Active”, the Activity (A549 [19]) was 22.3% and the Activity (A549 [20]) was 5.52%. For the same molecule, the Activity (A549 [21]) was “Active”, the Activity (A549 [22]) was 17.7% and the Activity (A549 [23]) was 4.67%. It also gave an Activity (A549 [24]) of 19.5%, an Activity (A549 [25]) of 2.44% and an Activity (A549 [26]) of 3.66%. For the same molecule, the inhibition [27] was “inactive”.
`Cc1ccc(C(=O)n2c(-c3cc(-c4ccc(N5CCOCC5)cc4)on3)nc3ccccc32)cc1` gave an IC50 (A549 [1]) of 19.2 µM and an IC50 (NCI-H1299) of 22.2 µM.
Molecule `c1ccc(Cn2c(-c3cc(-c4ccc(N5CCOCC5)cc4)on3)nc3ccccc32)cc1` has an IC50 (A549 [1]) greater than 40 µM and an IC50 (NCI-H1299) greater than 40 µM.
For `CN(C)CCn1c(-c2cc(-c3ccc(N4CCOCC4)cc3)on2)nc2ccccc21`, the IC50 (A549 [1]) was 8.92 µM and the IC50 (NCI-H1299) was 18.9 µM.
With `CCN(CC)CCCn1c(-c2cc(-c3ccc(N(C)C)cc3)on2)nc2ccccc21` the IC50 (A549 [1]) was 8.78 µM and the IC50 (NCI-H1299) was 19.7 µM.
Molecule `c1ccc2c(c1)nc(-c1cc(-c3ccc(N4CCCCC4)cc3)on1)n2CCN1CCCCCC1` has an IC50 (A549 [1]) of 9.38 µM and an IC50 (NCI-H1299) of 16.7 µM.
For `c1ccc2c(c1)nc(-c1cc(-c3ccc(N4CCCC4)cc3)on1)n2CCN1CCCCCC1`, the IC50 (A549 [1]) was 21.2 µM and the IC50 (NCI-H1299) was 36.3 µM.
`c1ccc2c(c1)nc(-c1cc(-c3ccc(N4CCCCCC4)cc3)on1)n2CCN1CCCC1` showed an IC50 (A549 [1]) of 10.5 µM and an IC50 (NCI-H1299) of 24.6 µM.
In the case of `c1ccc2c(c1)nc(-c1cc(-c3ccc(N4CCCC4)cc3)on1)n2CCCN1CCOCC1`, the IC50 (A549 [1]) is reported as 29.5 µM and the IC50 (NCI-H1299) is reported as 36.2 µM.
Molecule `Cc1cc(C)cc(OCCn2c(C3CC(=O)N(c4cccc(C)c4)C3)nc3ccccc32)c1` (stereo not given) has an IC50 (A549 [1]) of 15.3 µM and an IC50 (NCI-H1299) of 18.8 µM.
`Fc1ccc(-c2cc(-c3nc4ccccc4n3Cc3ccccc3)no2)cc1` showed an IC50 (A549 [1]) greater than 40 µM and an IC50 (NCI-H1299) greater than 40 µM.
With `CN(C)CCCn1c(-c2cc(-c3ccc(N(C)C)cc3)on2)nc2ccccc21` the IC50 (A549 [1]) was 20.6 µM and the IC50 (NCI-H1299) was 17.9 µM.
Work on `CN(C)c1ccc(-c2cc(-c3nc4ccccc4n3CCN3CCCC3)no2)cc1` yielded an IC50 (A549 [1]) of 10.7 µM and an IC50 (NCI-H1299) of 14.2 µM.
In the case of `c1ccc2c(c1)nc(-c1cc(-c3ccc(N4CCCCC4)cc3)on1)n2CCN1CCOCC1`, the IC50 (A549 [1]) is reported as 11.2 µM and the IC50 (NCI-H1299) is reported as 23.8 µM.
`c1ccc2c(c1)nc(-c1cc(-c3ccc(N4CCCCCC4)cc3)on1)n2CCCN1CCOCC1` gave an IC50 (A549 [1]) of 20.6 µM and an IC50 (NCI-H1299) of 22.3 µM.
With `c1ccc2c(c1)nc(-c1cc(-c3ccc(N4CCCCCC4)cc3)on1)n2CCN1CCCCC1` the IC50 (A549 [1]) was 10.9 µM and the IC50 (NCI-H1299) was 21.8 µM.
In the case of `CN(C)CCCn1c(-c2cc(-c3ccc(N4CCOCC4)cc3)on2)nc2ccccc21`, the IC50 (A549 [1]) is reported as 10.1 µM and the IC50 (NCI-H1299) is reported as 22.3 µM.
Work on `c1ccc2c(c1)nc(-c1cc(-c3ccc(N4CCOCC4)cc3)on1)n2CCCN1CCCCC1` yielded an IC50 (A549 [1]) of 6.25 µM and an IC50 (NCI-H1299) of 20.2 µM.
